Legend:
TAT+/gp120-LV = assay: Entry of TAT+/gp120-LV into C8166 cells after co-culture with U937/PINCO or U937/TAT cells; type: cell-based, HIV-1
Text: This example is illustrated in Fig. 10. […] Said vector, as described in Example II, allows the expression of TAT, so that TAT is already present, as detailed described before, in the vector preparation and its amount is enhanced after the co-culture with U937/TAT cells. […] In particular, peptides with SEQ ID NO. 40 (RDKKKK), 42 (RDKKKV), 45 (KDKKEK), 47 (RDKKQK), 49 (RDKQQK), 50 (RDKVQK) revert the entry of more than 15%.
This example is illustrated in Fig. 11. […] 4 (CSFINT) and 44 (RDKVKK), where the entry experiment is performed with TAT+/gp120-LV, following 4 h co-culture of C8166 cells with U937/TAT cells. These two peptides are the ones derived from the Phage Display screening, and is here evaluated their ability of inhibit vector entry at concentrations lower than 100 µM (the concentration used in all the examples previously described). To verify if the integrity of the peptides is crucial for their activity, we have incubated the cells with said peptides in the presence of different protease inhibitors (aprotinin or a mix made by aprotinin, leupeptin, bestatin, pepstatin-A, AEBSF [4-(2-Aminoethyl) Benzenesulfonyl Fluoride Hydrochloride] and E-64 [(N-(N-(L-3-Transcarboxirane-2-Carbonyl)-L-Leucyl)-Agmatine)]). […] This example illustrates a way by which the power of said peptides can be improved.
Co-cultures and incubations with rTAT. […]
Transduction with HIV-1-derived lentivirus. Vector stocks were prepared by transient co-transfection of 293T cells with the following combinations of plasmids: pRRL.hPGK.GFP.SIN-18 + pCMV.DR8.2 + pMD.G (Naldini et al. (1996), supra) (VSV-G-LV) or pEnvHXB (Huang et al., J. Virol. 72 (1998), 8952-8960) (TAT+/gp120-LV); pRRL.hPGK.GFP.SIN-18 + pCMV.DR8.74 + pRSV-Rev ((Dull et al. (1998), supra) + pEnvHXB (TAT^-/gp120-LV). Vector concentration was determined by HIV-1 p24 Core profile ELISA following the manufacturer's instructions. The entry experiments were conducted on 10^5 cells per well of a 48-well plate in the presence of 8 µg/ml polybrene. The number of GFP-positive cells was analysed by FACS.

HIV-1 Ba-L = assay: Infection of PHA-stimulated PBMCs with wild type HIV-1 Ba-L (early viral transcripts by PCR); type: cell-based; conditions: 2 h at 37 °C, compared to 100 µM control peptide, SEQ ID NO.4 and 44: 100-50-10 µM, SEQ ID NO. 127: 1 µM-100-10 nM
Method: This example is illustrated in Fig. 12. […] 4 (CSFINT), 44 (RDKVKK) and the complete gp120 region SEQ ID NO.127 (CSFNITTEIRDKVKK), where the entry experiment is performed with two strains of HIV-1 on peripheral blood cells (PBMCs) derived from healthy donors. In particular, strain III B uses CXCR4 as a co-receptor (X4) and Ba-L uses CCR5 (R5).
In the graphs the percent inhibition of infection due to the peptides is shown, as compared to infection in the presence of 100 µM of a control peptide. PHA-stimulated PBMCs have been incubated with the peptides and immediately infected for 2 h at 37 °C. This incubation time is sufficient to evaluate virus entry, by detecting the presence of early viral transcripts into the cytoplasm of infected cells. The peptide concentrations are as follows: SEQ ID NO.4 and 44: 100-50-10 µM; SEQ ID NO. 127: 1 µM-100-10 nM. In Fig. 12A is represented the effect of the peptides on the basal infection of both viral strains, in Fig. 12B the effect of the peptides on the infection following incubation with rTAT 7 nM. A peptide-dependent inhibition of the basal infection by both HIV-1 strains is present already in the basal infection, reflecting the presence of TAT in the viral supernatants. […]
Infection with wild type HIV-1. […] Amplified DNA was analyzed by Southern blot hybridization with a ^32P-labeled probe, and quantified by densitometry. […]

| Substance | reversion of TAT+/gp120-LV entry (TAT+/gp120-LV; 100 µM of the peptides, 4 h co-culture of C8166 cells with U937/PINCO or U937/TAT cells (effect potentiated by co-culture with U937/TAT)) | inhibition of the basal infection (HIV-1 Ba-L) [%] | blocking of virus entry (TAT+/gp120-LV) (TAT+/gp120-LV; concentration lower than 100 µM, no protease inhibitors, 4 h co-culture with U937/TAT cells) | concentration at which the inhibitory effect is still visible (TAT+/gp120-LV; in the presence of protease inhibitors (aprotinin or mix), 4 h co-culture with U937/TAT cells) [µM] |
| --- | --- | --- | --- | --- |
| RDKKQQ [SEQ ID NO. 47] | more than 15% | – | – | – |
| CSFINT [SEQ ID NO. 4] | – | ~70 | inefficient in blocking virus entry | 5 |

From patent publication EP1431306A1, “A mechanism for hiv-1 entry into host cells and peptides inhibiting this mechanism” (priority 2002, dated 2004)
